This passage reports IC50 results from PMC10180211, “Stability Analysis of the Asiatic Acid-COX-2 Complex Using 100 ns Molecular Dynamic Simulations and Its Selectivity against COX-2 as a Potential Anti-Inflammatory Candidate” (Molecules, 2023).

This experiment concerns the target T1, cyclooxygenase-2 (COX-2) (Ovis aries, UniProt P79208).
T1 construct: gene PTGS2
T1 sequence (P79208 17-603): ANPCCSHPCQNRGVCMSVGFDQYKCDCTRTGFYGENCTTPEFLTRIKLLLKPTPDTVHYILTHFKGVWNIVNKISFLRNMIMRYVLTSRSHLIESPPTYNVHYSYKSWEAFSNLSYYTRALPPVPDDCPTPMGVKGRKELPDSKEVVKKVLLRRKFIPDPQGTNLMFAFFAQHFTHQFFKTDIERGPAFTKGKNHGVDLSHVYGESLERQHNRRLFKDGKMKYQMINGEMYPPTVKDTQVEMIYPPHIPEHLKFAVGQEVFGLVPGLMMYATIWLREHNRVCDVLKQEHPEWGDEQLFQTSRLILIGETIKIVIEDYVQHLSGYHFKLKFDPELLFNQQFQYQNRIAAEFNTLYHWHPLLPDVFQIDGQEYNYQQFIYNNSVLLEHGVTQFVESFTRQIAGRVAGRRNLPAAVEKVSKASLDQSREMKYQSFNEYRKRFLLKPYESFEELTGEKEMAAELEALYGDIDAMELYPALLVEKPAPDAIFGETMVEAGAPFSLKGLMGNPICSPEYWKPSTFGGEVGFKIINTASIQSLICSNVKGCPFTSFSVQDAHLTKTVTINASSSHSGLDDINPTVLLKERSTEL
Put plainly: colorimetric COX inhibitor screening assay (kit […]; TMPD oxidation at […] nm) with ovine COX-2. Format: biochemical.

Consider `C[C@H]1[C@H](C)CC[C@]2(C(=O)O)CC[C@]3(C)C(=CC[C@@H]4[C@@]5(C)C[C@@H](O)[C@H](O)[C@@](C)(CO)[C@@H]5CC[C@]43C)[C@H]12` [asiatic acid, 2,3,23-trihydroxy-urs-12-ene-28-oic-acid], for which 120 µM corresponded to half-maximal inhibition (IC50).

The IC50 is the concentration at which inhibition is half-maximal.
